The results in this text go back to paper PMC11254100 (Angewandte Chemie (International ed. in English), 2024).

This test addresses CAHEX:6HIS (Human immunodeficiency virus type 1 group M subtype B, UniProt P12493, A146C/E177C/M317A/W316A). As to conditions: BLI, CAHEX:6HIS immobilized on HIS-affinity probes. On the technique in general: In BLI a coated tip is dipped into the sample, and binding shifts an interference pattern.

Regarding Lenacapvir, the koff was 2.978 ± 0.015 x10^−4 s^−1 and the kon is on record as 1.040 ± 0.007 x10^4 M^−1s^−1.
